# According to patent US11761045B2, “Splice variants associated with neomorphic SF3B1 mutants” (Eisai R&D Management Co., Ltd., priority 2015, dated 2023):
# Legend:
# Nalm-6 SF3B1^K700E cells = experiment: Normal and aberrant splicing in Nalm-6 isogenic cells by qPCR; format: cell-based, human; conditions: increasing concentrations, six hours
# Procedure: (§1) E7107 was also tested in vitro in Nalm-6 isogenic cell lines for the ability to modulate normal and aberrant splicing induced by SF3B1^WT and SF3B1^K700E protein. Nalm-6 isogenic cells were treated with increasing concentrations of E7107 for six hours and RNA was analyzed by qPCR.
# (§2) In addition, the ability of E7107 to modulate splicing was tested in mice bearing human tumor xenografts. Nalm-6 isogenic xenograft mice were generated by subcutaneously implanting 10×10^6 Nalm-6 isogenic cells into the flank of CB17-SCID mice, and tumors from these mice were collected at different timepoints after a single intravenous (IV) dose of E7107 (5 mg/kg) and analyzed to determine compound concentrations and splicing regulation. RNA was isolated from the tumors using RiboPure™ RNA purification kit (Ambion®) and used for NanoString® assay or qPCR. The RNA was retrotranscribed according to the instructions of the SuperScript® VILO™ cDNA synthesis kit (Invitrogen™) and 0.04 μl of cDNA was used for qPCR. qPCR for pre-mRNA EIF4A1 and mature mRNA […] and pharmacokinetic evaluation were performed as described in Eskens, F. A. et al. “Phase I pharmacokinetic and pharmacodynamic study of the first-in-class spliceosome inhibitor E7107 in patients with advanced solid tumors.” Clin Cancer Res 19, 6296-6304, doi:10.1158/1078-0432.CCR-13-0485 (2013). The primers and probes used for ZDHHC16 were the following: FW 5′-[…] (SEQ ID NO: 1194), RW 5′ […] (SEQ ID NO: 1195) and probe 5′ FAM […] (SEQ ID NO: 1196). The primers and probes used for COASY were the following: FW 5′-CGGTGGTGCAAGTGGAA (SEQ ID NO: 1197), RW 5′-[…] (SEQ ID NO: 1198) and probe 5′-FAM-[…] (SEQ ID NO: 1199).
# Nalm-6 SF3B1^K700K cells = experiment: as above; format: cell-based, human; conditions: increasing concentrations, six hours
# Procedure: as §1, §2
# SF3B1^WT = SF3B1^WT (Homo sapiens, UniProt O75533+Q7RTV0); experiment: In vitro splicing assay (IVS), Ad2 pre-mRNA substrate, nuclear extracts; format: biochemical; set-up: expressed in transfected cells; host or cells: nuclear extract of 293F cells transfected with pFLAG-CMV-2-SF3B1 (the same assay was also run with Nalm-6 nuclear extract); conditions: nuclear extracts from Nalm-6 (SF3B1^WT) cells or 293F cells expressing Flag-tag SF3B1^WT
# Procedure: E7107 is a small-molecule compound that inhibits splicing by targeting the U2 snRNP-associated complex SF3B (Kotake, Y. et al. “Splicing factor SF3b as a target of the antitumor natural product pladienolide.” Nat Chem Biol 3, 570-575, doi:10.1038/nchembio.2007.16 [2007]).
# Nuclear extracts were prepared from 293F cells transfected with pFLAG-CMV-2-SF3B1 plasmids, or from isogenic Nalm-6 cells (SBH Sciences). The plasmids were generated by cloning the mxSF3B1 gene into the HindIII and KpnI sites of pFLAG-CMV2 (Sigma), and the mutations mxSF3B1^K700E, mxsF3B1^R1074H and mxSF3B1^K700E-R1074H were introduced using […]. Cell pellets were resuspended in hypotonic buffer (10 mM HEPES pH 7.9, 1.5 mM MgCl2, 10 mM KCl, 0.2 mM PMSF, and 0.5 mM DTT; for Nalm-6 cells, 40 mM KCl was used). The suspension was brought up to a total of five packed cell volumes (PCV). After centrifugation, the supernatant was discarded, and the cells were brought up to 3 PCV with hypotonic buffer, and incubated on ice for 10 minutes. Cells were lysed using a dounce homogenizer and then centrifuged. […] Protein concentration was determined using NanoDrop 8000 UV-Vis spectrophotometer (Thermo Scientific). […]
compound,measurement,setting,value
CC[C@H](O)[C@@H](C)[C@H]1O[C@@H]1C[C@@](C)(O)/C=C/C=C(\C)[C@H]1OC(=O)C[C@H](O)CC[C@@](C)(O)[C@@H](OC(=O)N2CCN(C3CCCCCC3)CC2)/C=C/[C@@H]1C [Compound E7107],EIF4A1 pre-mRNA level (canonical splicing),Nalm-6 SF3B1^K700E cells,accumulation of pre-mRNA for EIF4A1
same,SLC25A19 mature mRNA level (canonical splicing),Nalm-6 SF3B1^K700E cells,downregulation of the mature mRNA SLC25A19
same,mature mRNA of abnormally spliced isoform of COASY,Nalm-6 SF3B1^K700E cells,downregulation of mature mRNA
same,mature mRNA of abnormally spliced isoform of ZDHHC16,Nalm-6 SF3B1^K700E cells,downregulation of mature mRNA
same,EIF4A1 pre-mRNA level (canonical splicing),Nalm-6 SF3B1^K700K cells,accumulation of pre-mRNA for EIF4A1
same,SLC25A19 mature mRNA level (canonical splicing),Nalm-6 SF3B1^K700K cells,downregulation of the mature mRNA SLC25A19
same,inhibition of splicing of Ad2 pre-mRNA in nuclear extracts,SF3B1^WT,able to inhibit splicing
